According to patent publication US8299252B2, “Pyrazolopyridine and pyrrolopyridine multikinase inhibitors” (Chugai Seiyaku Kabushiki Kaisha, priority 2005, dated 2012):
Values after ≈ are worked out from the molar mass of the structure shown.

Tests used:
[1] = molecular target: T1, FLT3 intracellular domain protein (Homo sapiens, UniProt P36888); assay: Flt3 enzyme inhibition test (HTRF); assay type: biochemical; details: phosphorylation of biotinylated peptide
T1 sequence (P36888 564-993 limits assumed): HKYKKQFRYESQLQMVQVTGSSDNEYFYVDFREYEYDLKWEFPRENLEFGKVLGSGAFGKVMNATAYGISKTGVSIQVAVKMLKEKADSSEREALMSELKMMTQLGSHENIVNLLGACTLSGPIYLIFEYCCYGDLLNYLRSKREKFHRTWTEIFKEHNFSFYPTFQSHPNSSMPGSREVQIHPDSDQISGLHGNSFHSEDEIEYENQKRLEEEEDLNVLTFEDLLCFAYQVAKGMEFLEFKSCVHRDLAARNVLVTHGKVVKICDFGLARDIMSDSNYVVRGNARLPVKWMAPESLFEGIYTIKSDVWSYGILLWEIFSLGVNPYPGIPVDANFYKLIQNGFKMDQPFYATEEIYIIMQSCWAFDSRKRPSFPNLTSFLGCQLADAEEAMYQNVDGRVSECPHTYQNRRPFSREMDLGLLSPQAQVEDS
Protocol: The FLT3 inhibitory activity was measured by the activity of FLT3 intracellular domain protein inhibiting for phosphorylation of a biotinylated peptide ([…]).

[2] = Solubility in fasted state simulated intestinal fluid; assay type: physicochemical; details: pH 6.5, fassif, kinetic from dmso stock, fasted state simulated intestinal fluid (pH6.5), 37° C.
Protocol: 2 μL of each dimethyl sulfoxide solutions containing test compounds were dispensed into wells of a 96-well plate, and 200 μL of fasted state simulated intestinal fluid (pH6.5) was added to each well. The plate was shaken at 37° C. for 20 hours. The solution was filtered through a membrane filter, and 101 μL of the filtrate was transferred to a UV plate, followed by addition of 100 μL of a solution mixture of ethanol:water=2:1 thereto. Separately, as a standard, 101 μL of a solution prepared by 2 μL of a dimethyl sulfoxide solution, 4 μL of dimethyl sulfoxide, 400 μL of ethanol, and 200 μL of water was transferred to a UV plate, and 100 μL of fasted state simulated intestinal fluid (pH6.5) was added thereto. The solubility was calculated by the following expression: Solubility=[(absorbance of test solution)−blank]/[(absorbance of standard solution)−blank]×165 μM (165 μM is the concentration of the standard solution) Composition of the fasted state simulated intestinal fluid (pH6.5)
The composition was prepared in compliance with the description in E. Galia, et al., Pharm. Res. 1998, 698.
Taurocholic acid (161 mg), L-α-phosphatidylcholine (59 mg), potassium dihydrogen phosphate (0.39 g), and potassium chloride (0.77 g) were added to about 90 mL of water. The resulting solution was adjusted to a pH of 6.5 with a sodium hydroxide aqueous solution and then diluted to a volume of 100 mL with water. The solution was filtered through a membrane filter.

[3] = molecular target: Raf-1 (Homo sapiens, UniProt P04049); assay: Raf-1 enzyme inhibition assay (MEK-1 phosphorylation, HTRF); assay type: biochemical; details: for IC50: phosphorylation of His6-MEK-1
Raf-1, sequence (P04049 whole entry): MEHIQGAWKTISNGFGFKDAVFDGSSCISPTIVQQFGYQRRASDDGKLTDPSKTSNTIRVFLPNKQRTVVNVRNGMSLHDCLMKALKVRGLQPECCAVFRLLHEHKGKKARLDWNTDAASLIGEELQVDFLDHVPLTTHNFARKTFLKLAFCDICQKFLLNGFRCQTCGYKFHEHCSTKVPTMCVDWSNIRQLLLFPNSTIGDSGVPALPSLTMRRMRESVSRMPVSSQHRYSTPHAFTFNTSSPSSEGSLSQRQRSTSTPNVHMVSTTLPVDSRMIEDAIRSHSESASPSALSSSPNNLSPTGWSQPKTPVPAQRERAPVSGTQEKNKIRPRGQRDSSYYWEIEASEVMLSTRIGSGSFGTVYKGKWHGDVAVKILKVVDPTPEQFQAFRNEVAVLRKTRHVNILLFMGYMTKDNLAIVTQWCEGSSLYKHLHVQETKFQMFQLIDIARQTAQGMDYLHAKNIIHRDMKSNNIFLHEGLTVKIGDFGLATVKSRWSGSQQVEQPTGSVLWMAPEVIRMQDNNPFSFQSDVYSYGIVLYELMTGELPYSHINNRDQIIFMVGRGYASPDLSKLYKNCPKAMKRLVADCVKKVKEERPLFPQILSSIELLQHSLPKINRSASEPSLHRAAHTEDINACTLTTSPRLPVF
Protocol: (§1) The compounds according to the present invention were measured for Raf-1 and KDR enzyme inhibitory activities.
(§2) The Raf-1 inhibitory activity was measured by the activity of Raf-1 protein for inhibiting phosphorylation of MEK-1 protein having six histidine residues (His6) fused to the N-terminus thereof. […] The KDR inhibitory activity was measured by the activity of KDR intracellular domain protein for inhibiting phosphorylation of a biotinylated peptide ([…]).

[4] = system: human colon cancer cell line HCT116 cells; assay: Cell proliferation inhibitory activity, HCT116; assay type: cell-based; details: for IC50: Homo sapiens, HCT-116, read-out: 50% proliferation inhibitory concentration (IC50 value) HCT116, HCT116, 72 hours, WST-8
Protocol: (§3) The compounds according to the present invention were measured for cancer cell proliferation inhibitory activity and human umbilical vein endothelial cell (HUVEC) proliferation inhibitory activity.
(§4) Test compounds were serially diluted with dimethyl sulfoxide and then diluted 50 times with Ca^2+- and Mg^2+-free phosphate-buffered saline, and 20 μL of each of the resulting solution was dispensed into a 96-well plate. […] Each cell suspension contains approximately 3000 cells/180 μL. These cell suspensions were dispensed to the plate containing the test compounds at 180 μL/well and incubated in a 5% carbon dioxide gas incubator at 37° C. for 72 hours. 20 μL of WST-8 (HCT116, Dojin) or WST-1 (HUVEC, Roche Diagnostics) was added to each well, and absorbance at 450 nm (reference wavelength: 650 nm) was measured.

[5] = system: human umbilical vein endothelial cells (HUVEC), VEGF-independent proliferation; assay: VEGF-independent HUVEC proliferation inhibition assay; assay type: cell-based; details: read-out: 50% proliferation inhibitory concentration (IC50 value) HUVEC (VEGF-independent), vascular endothelial cell growth-promoting agent and heparin, 72 hours, WST-1
Protocol: as §3, §4

[6] = system: human umbilical vein endothelial cells (HUVEC), VEGF-dependent proliferation; assay: VEGF-dependent HUVEC proliferation inhibition assay; assay type: cell-based; details: read-out: 50% proliferation inhibitory concentration (IC50 value) HUVEC (VEGF-dependent), 20 ng/mL of VEGF, 72 hours, WST-1
Protocol: as §3, §4

[7] = molecular target: KDR intracellular domain protein (Homo sapiens, UniProt P35968); assay: KDR enzyme inhibition assay (biotinylated peptide phosphorylation, HTRF); assay type: biochemical; details: phosphorylation of biotinylated peptide
KDR intracellular domain protein, sequence (P35968 786-1356 limits assumed): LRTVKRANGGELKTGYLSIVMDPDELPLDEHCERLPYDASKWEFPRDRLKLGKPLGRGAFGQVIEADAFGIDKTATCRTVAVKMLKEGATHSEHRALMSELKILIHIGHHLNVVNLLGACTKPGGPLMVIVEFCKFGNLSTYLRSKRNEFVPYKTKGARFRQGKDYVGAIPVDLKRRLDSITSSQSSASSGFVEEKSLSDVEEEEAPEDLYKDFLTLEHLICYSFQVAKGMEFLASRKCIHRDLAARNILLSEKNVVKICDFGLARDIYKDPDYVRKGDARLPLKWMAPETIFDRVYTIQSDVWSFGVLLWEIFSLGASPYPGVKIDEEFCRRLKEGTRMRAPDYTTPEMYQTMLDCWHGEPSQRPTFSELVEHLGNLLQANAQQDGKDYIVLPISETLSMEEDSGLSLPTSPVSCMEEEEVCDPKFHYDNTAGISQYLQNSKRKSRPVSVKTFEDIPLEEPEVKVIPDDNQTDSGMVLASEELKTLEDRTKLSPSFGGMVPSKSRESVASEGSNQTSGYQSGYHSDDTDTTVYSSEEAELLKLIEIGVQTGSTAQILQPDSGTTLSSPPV
Protocol: as §1, §2

| SMILES | IC50 [1] [nM] | solubility at 20 h [2] [µg/mL] | Raf-1 inhibitory activity (in words) [3] | IC50 [4] [nM] | IC50 [7] [nM] | IC50 [3] [nM] | proliferation inhibitory activity for HCT116 cells (in words) [4] | IC50 [5] [nM] | IC50 [6] [nM] |
| --- | --- | --- | --- | --- | --- | --- | --- | --- | --- |
| O=C(Nc1ccc(Oc2ccnc3[nH]ncc23)cc1)Nc1cc(CCF)cc(C(F)(F)F)c1 [Compound 24, 1-[3-(2-Fluoroethyl)-5-(trifluoromethyl)phenyl]-3-[4-(1H-pyrazolo[3,4-b]pyridin-4-yloxy)phenyl]urea] | 18 | 19 (≈ 41.4 µM) |  |  |  |  |  |  |  |
| O=C(Nc1ccc(F)cc1)Nc1ccc(Oc2ccnc3[nH]ccc23)cc1 [Compound B, reference compound] |  |  | does not have Raf-1 inhibitory activity |  |  |  | does not have proliferation inhibitory activity |  |  |
| O=C(Nc1ccc(Oc2ccnc3[nH]ncc23)cc1)Nc1ccc(CCCCF)c(C(F)(F)F)c1 [Compound 35, 1-[4-(4-Fluorobutyl)-3-(trifluoromethyl)phenyl]-3-[4-(1H-pyrazolo[3,4-b]pyridin-4-yloxy)phenyl]urea] |  | 18 (≈ 36.9 µM) |  |  |  |  |  |  |  |
| O=C(Nc1ccc(Oc2ccnc3[nH]ccc23)cc1)Nc1cc(CCC(F)F)cc(C(F)(F)F)c1 [Compound 32, 1-[3-(3,3-Difluoropropyl)-5-(trifluoromethyl)phenyl]-3-[4-(1H-pyrrolo[2,3-b]pyridin-4-yloxy)phenyl]urea] |  |  |  | 1500 | 0.95 | 62 |  | 1200 | 15 |
| O=C(Nc1ccc(Oc2ccnc3[nH]ncc23)cc1)Nc1ccc(CCF)c(C(F)(F)F)c1 [Compound 23, 1-[4-(2-Fluoroethyl)-3-(trifluoromethyl)phenyl]-3-[4-(1H-pyrazolo[3,4-b]pyridin-4-yloxy)phenyl]urea] | 6.9 |  |  |  | 3.7 | 19 |  |  |  |
| O=C(Nc1ccc(Oc2ccnc3[nH]ccc23)cc1)Nc1cc(CCCF)cc(C(F)(F)F)c1 [Compound 29, 1-[3-(3-Fluoropropyl)-5-(trifluoromethyl)phenyl]-3-[4-(1H-pyrrolo[2,3-b]pyridin-4-yloxy)phenyl]urea] |  |  |  | 1600 | 9.1 | 82 |  | 1100 | 8 |
| O=C(Nc1ccc(Oc2ccnc3[nH]ccc23)cc1)Nc1cc(OC2CCOCC2)cc(C(F)(F)F)c1 [Compound 9, 1-[4-(1H-Pyrrolo[2,3-b]pyridin-4-yloxy)phenyl]-3-[3-(tetrahydro-pyran-4-yloxy)-5-(trifluoromethyl)phenyl]urea] |  |  |  | 1700 | 2.2 | 65 |  | 1800 | 30 |
| O=C(Nc1ccc(Oc2ccnc3[nH]ccc23)cc1)Nc1cc(CCCCF)cc(C(F)(F)F)c1 [Compound 38, 1-[3-(4-Fluorobutyl)-5-(trifluoromethyl)phenyl]-3-[4-(1H-pyrrolo[2,3-b]pyridin-4-yloxy)phenyl]urea] |  |  |  |  | 1.3 | 64 |  |  |  |
| O=C(Nc1ccc(Oc2ccnc3[nH]ccc23)cc1)Nc1cc(CCCC(F)F)cc(C(F)(F)F)c1 [Compound 41, 1-[3-(4,4-Difluorobutyl)-5-(trifluoromethyl)phenyl]-3-[4-(1H-pyrrolo[2,3-b]pyridin-4-yloxy)phenyl]urea] |  |  |  |  | 3.5 | 82 |  |  |  |
| O=C(Nc1ccc(Oc2ccnc3[nH]ccc23)cc1)Nc1ccc2c(CCF)cccc2c1 [Compound 42, 1-[5-(2-Fluoroethyl)naphthalen-2-yl]-3-[4-(1H-pyrrolo[2,3-b]pyridin-4-yloxy)phenyl]urea] | 6 |  |  | 4400 |  |  |  | 5900 | 50 |
| COCCOc1cccc2cc(NC(=O)Nc3ccc(Oc4ccnc5[nH]ccc45)cc3)ccc12 [Compound 3, 1-[5-(2-Methoxyethoxy)naphthalen-2-yl]-3-[4-(1H-pyrrolo[2,3-b]pyridin-4-yloxy)phenyl]urea] | 15 |  |  | 3400 |  |  |  | 4400 | 3.7 |
| O=C(Nc1ccc(Oc2ccnc3[nH]ccc23)cc1)Nc1ccc2c(CCCF)cccc2c1 [Compound 46, 1-[5-(3-Fluoropropyl)naphthalen-2-yl]-3-[4-(1H-pyrrolo[2,3-b]pyridin-4-yloxy)phenyl]urea] |  |  |  | 3300 |  |  |  | 4100 | 15 |

Continued, in another order:

| IC50 [1] [nM] | solubility at 20 h [2] [µg/mL] | Raf-1 inhibitory activity (in words) [3] | IC50 [4] [nM] | IC50 [7] [nM] | IC50 [3] [nM] | SMILES | proliferation inhibitory activity for HCT116 cells (in words) [4] | IC50 [5] [nM] | IC50 [6] [nM] |
| --- | --- | --- | --- | --- | --- | --- | --- | --- | --- |
|  | 15 (≈ 29.4 µM) |  | 3100 |  |  | O=C(Nc1ccc(Oc2ccnc3[nH]ccc23)cc1)Nc1ccc(OCC(F)(F)F)c(C(F)(F)F)c1 [Compound 13, 1-[4-(1H-Pyrrolo[2,3-b]pyridin-4-yloxy)phenyl]-3-[4-(2,2,2-trifluoro-ethoxy)-3-(trifluoromethyl)phenyl]urea] |  | 1200 | 7.4 |
|  | 35 (≈ 72.9 µM) |  |  |  |  | O=C(Nc1ccc(Oc2ccnc3[nH]ccc23)cc1)Nc1cc(C(F)(F)F)cc(C(F)(F)F)c1 [Compound 50, 1-[3,5-Bis(trifluoromethyl)phenyl]-3-[4-(1H-pyrrolo[2,3-b]pyridin-4-yloxy)phenyl]urea] |  |  |  |
| 16 | 15 (≈ 33.8 µM) |  | 1000 | 0.35 | 35 | O=C(Nc1ccc(Oc2ccnc3[nH]ccc23)cc1)Nc1ccc(CF)c(C(F)(F)F)c1 [Compound 51, 1-(4-fluoromethyl-3-trifluoromethyl-phenyl)-3-[4-(1H-pyrrolo[2,3-b]pyridin-4-yloxy)phenyl]urea] |  | 800 | 4 |
|  |  |  | 1500 | 8.5 | 47 | CCc1ccc(NC(=O)Nc2ccc(Oc3ccnc4[nH]ccc34)cc2)cc1C(F)(F)F [Compound 55, 1-(4-Ethyl-3-trifluoromethyl-phenyl)-3-[4-(1H-pyrrolo[2,3-b]pyridin-4-yloxy)phenyl]urea] |  | 1400 | 7.2 |
|  |  |  | 2200 | 16 | 70 | C=Cc1ccc(NC(=O)Nc2ccc(Oc3ccnc4[nH]ccc34)cc2)cc1C(F)(F)F [Compound 56, 1-[4-(1H-Pyrrolo[2,3-b]pyridin-4-yloxy)phenyl]-3-(3-trifluoromethyl-4-vinyl-phenyl)urea] |  | 3100 | 12 |
|  | 25 (≈ 50.4 µM) |  |  |  |  | O=C(Nc1ccc(Oc2ccnc3[nH]ccc23)cc1)Nc1ccc(OC(F)(F)F)c(C(F)(F)F)c1 [Compound 20, 1-[4-(1H-Pyrrolo[2,3-b]pyridin-4-yloxy)phenyl]-3-[4-trifluoromethoxy-3-(trifluoromethyl)phenyl]urea] |  |  |  |
|  | 21 (≈ 43.2 µM) |  |  |  |  | O=C(Nc1ccc(Oc2ccnc3[nH]ccc23)cc1)Nc1ccc(CCCCF)c(C(F)(F)F)c1 [Compound 34, 1-[4-(4-Fluorobutyl)-3-(trifluoromethyl)phenyl]-3-[4-(1H-pyrrolo[2,3-b]pyridin-4-yloxy)phenyl]urea] |  |  |  |
